Like-named read-outs stand apart in the source and are kept apart here.

The target of data set [1] is T1, human androgen receptor (hAR) (Homo sapiens, UniProt P10275).
T1 sequence (P10275 1-920): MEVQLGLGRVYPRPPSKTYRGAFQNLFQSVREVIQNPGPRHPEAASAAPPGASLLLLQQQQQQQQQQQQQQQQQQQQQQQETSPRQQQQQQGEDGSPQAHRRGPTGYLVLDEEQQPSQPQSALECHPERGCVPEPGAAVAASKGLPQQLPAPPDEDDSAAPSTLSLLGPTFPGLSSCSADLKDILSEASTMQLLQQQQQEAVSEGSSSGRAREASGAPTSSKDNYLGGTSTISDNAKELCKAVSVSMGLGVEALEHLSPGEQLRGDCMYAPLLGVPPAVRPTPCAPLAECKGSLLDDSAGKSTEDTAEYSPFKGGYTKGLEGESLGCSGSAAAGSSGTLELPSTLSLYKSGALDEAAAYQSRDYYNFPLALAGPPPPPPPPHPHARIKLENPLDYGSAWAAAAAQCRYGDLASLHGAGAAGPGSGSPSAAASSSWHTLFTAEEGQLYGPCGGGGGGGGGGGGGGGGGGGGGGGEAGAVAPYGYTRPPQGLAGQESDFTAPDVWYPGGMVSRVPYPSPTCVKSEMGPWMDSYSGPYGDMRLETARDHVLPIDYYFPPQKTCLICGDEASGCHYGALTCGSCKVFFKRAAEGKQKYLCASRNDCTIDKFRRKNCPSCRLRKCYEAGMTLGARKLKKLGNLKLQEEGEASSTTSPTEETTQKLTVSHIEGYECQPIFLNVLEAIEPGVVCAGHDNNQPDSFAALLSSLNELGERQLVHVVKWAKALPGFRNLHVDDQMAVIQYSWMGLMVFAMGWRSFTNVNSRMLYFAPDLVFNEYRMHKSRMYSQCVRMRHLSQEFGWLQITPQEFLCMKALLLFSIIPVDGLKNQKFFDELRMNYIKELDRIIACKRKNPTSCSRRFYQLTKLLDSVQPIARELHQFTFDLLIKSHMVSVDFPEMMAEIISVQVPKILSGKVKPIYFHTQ
The experiment in a line: Functional response test: hAR transactivation (luciferase reporter) in HALP2 cells. Type of data set: cell-based. The method in brief:
(§1)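 HALP2 cells are HeLa cells stably transfected with CMV-driven hAR and a probasin ARE-luciferase reporter. They were seeded 24 h ahead, then exposed to compounds for 20 hours at 37° C in phenol red-free DMEM with 5% desteroided serum. Luciferase luminescence was measured after lysis; for antagonist mode, compounds were tested against increasing DHT concentrations.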
(In general: Reporter assays use an easily measured gene product as a stand-in for the process of interest.)

Data set [2] relates to castrated immature young rats. The experiment in a line: Adapted model of Hershberger's test (levator ani and ventral prostate weight). It counts as in vivo, Sprague Dawley rats. The following applies: Rattus norvegicus, po, 96 h. How it is done:
The selective modulating activity of the androgen receptor was tested in a model of castrated immature young rats. This model, which is widely recognised for evaluating the anabolic effects of androgen compounds on the muscles and on the genitalia, has been described by Hershberger et al. 1953 Proc. Soc. Expt. Biol. Med. 83:175.
The method is based on the measurement of the well-known effects of androgens on the growth of the muscles and the accessory male sex organs in animals, and also in men. The consequences of castration appear in the form of a rapid involution and atrophy of the prostate and the seminal vesicles and of the anus-lifting muscle (levator ani). This effect may be completely compensated by an exogeneous administration of androgen, in particular of testosterone. The model is thus used to determine the capacity of the tested molecules to maintain the weight of the accessory sex and muscle organs in immature castrated rats, and therefore their androgenic efficacy.
Immature young Sprague Dawley rats (4 to 5 weeks old) weighing approximately 140-160 g (Charles River, Les Oncins, FRANCE) were distributed randomly in various groups and were kept in an environment at 22±2° C. with an alternating day/night cycle of 12 hours and ad libitum access to food and drink.
On day 0, that is, seven days before commencement of the first treatment, the rats were weighed individually then anaesthetised with an intraperitoneal dose of Ketamine/xylazine (85/15 mg/kg, approximately 2 ml/kg). Each animal was then placed on a sterile field and the abdomen and the scrotum were disinfected with Betadine and 70% alcohol. In the case of the orchidectomised control animals (ORX), the testicles were removed via an incision in the middle of the scrotum. A sterile suture was then made to ligature the supra-testicular portion of the tissue prior to surgical section of each testicle. The groups of animals to be treated by the tested compounds were operated on in an identical manner. In the case of the intact control animals (SHAM), the testicles were similarly extracted and reintroduced delicately to their original location. The site of surgical intervention was then sutured using sterile suture thread, and the site was disinfected again by application of Betadine. Each animal was then kept under a sterile pad until it awoke, before being returned to its cage. The animals were kept in an environment at 22±2° C. with an alternating day/night cycle of 12 hours and ad libitum access to food and drink. The animals were treated with the molecules to be tested from post-surgery day 7 and until day 10 preceding sacrifice (day 11).
The rats were split into groups and treated daily from day 7 to day 10 under the conditions defined below: • 1. SHAM control group: Vehicle (0.5% aqueous methyl cellulose) administered per os. • 2. ORX control group: Vehicle (0.5% aqueous methyl cellulose) administered per os. • 3. Treated ORX group: The tested compounds were administered individually per os in suspension in the vehicle described above, in a dose of 30 mg/kg.
After treatment for 4 successive days, the animals were decapitated using a guillotine. The levator ani and the ventral prostate were removed and weighed individually. For comparing inter-experimental data, the weight of each organ was standardised and expressed in milligrammes per 100 g of the weight of the animal (W). For each organ, the average of the standardised weights of the ORX control group was fixed by definition at 0% and the average of the standardised weights of the SHAM control group was fixed by definition at 100%. The efficacy of each product was expressed as a percentage and calculated using the following formula: (Wtreated−WORX)/(WSHAM−WORX)×100 A subsequent ANOVA test was used for statistical analysis to identify the differences between groups.

For data set [3], the target named is human androgen receptor (hAR) (Homo sapiens, UniProt P10275). The experiment in a line: Functional response test: hAR transactivation (luciferase reporter) in HALP2 cells. It counts as cell-based. The method in brief: as §1
The source holds these as a separate data set.

In data set [4] the test system is castrated C57/B16J male mice. The experiment in a line: Model of osteoporosis in male mice (trabecular BMD of tibia). Type of data set: in vivo. Conditions: Mus musculus, sc, 672 h, ORX mice, 30 mg/kg subcutaneously daily, day 1 to 28, ORX = 0%, SHAM = 100%, read-out: efficacy in protecting mineral bone density. How it is done:
C57/B16J male mice aged 12 weeks and weighing approximately 20-25 g (Charles River, Les Oncins, FRANCE) were operated on as described above with regard to the rats. Castration mimicked the bone loss caused by androgen deficit. The aim of the study is to evaluate the capacity of the compounds to preserve and/or increase the bone mass. This is evaluated by measuring the bone mineral density (BMD). This model has previously been documented by Sims et al. 2003 J. Clin. Invest. 111(9):1319-27.
The animals were separated randomly into various groups and were kept in an environment at 22±2° C. with an alternating day/night cycle of 12 hours and ad libitum access to food and drink.
The tested compounds were administered from post-surgery day 1 and until day 28 preceding sacrifice (day 29). The mice were treated daily under the conditions defined below: • 1. SHAM control group: Vehicle (10/90 ethanol/corn oil mixture) administered subcutaneously. • 2. ORX control group: Vehicle (10/90 ethanol/corn oil mixture) administered subcutaneously. • 3. Treated ORX group: The tested compounds were administered individually subcutaneously in the vehicle described above, in a dose of 30 mg/kg.
During necropsy, the mice were first weighed then decapitated. The two hindlimbs were then carefully disarticulated at the femoral neck. The right hindlimb was frozen at −20° C. Densitometric quantitative analysis was performed on the trabecular portion of the tibia proximal metaphysis using a tomo densitometer (Stratec SA+, Hologic, Norland).
The average of the trabecular BMD of the mice in the ORX control group was defined as 0%. The average of the trabecular BMD of the mice in the SHAM control group was defined as 100%. The efficacy of each product as a percentage was calculated using the formula: (BMDtreated−BMDORX)/(BMDSHAM−BMDORX)×100
A subsequent ANOVA test was used for statistical analysis to identify the differences between groups.

[5] abbreviates: read-out: anabolic protection efficacy with regard to levator ani.
Where [6] appears, read: read-out: androgenic efficacy with regard to the prostate.

As usually defined, the EC50 is the concentration at which the effect is half-maximal. As a reminder, the melting point is the temperature of the solid-liquid transition. `CN1C(=O)N(c2ccc(Cl)c(Cl)c2)C(=O)C1(CO)c1ccc(O)cc1` (stereo not shown) [Example 175, 1-(3,4-dichlorophenyl)-4-hydroxymethyl-4-(4-hydroxyphenyl)-3-methylimidazolidine-2,5-dione] came in with a melting point of 215.6 °C. Besides, the EC50 in data set [1] (agonism, HALP2 cells (HeLa, hAR + ARE-luciferase), 20 hours at 37° C.) is 1.38 nM. In data set [1] (antagonism, concentration which increases the EC50 of the DHT by a factor of 2, Schild regression, HALP2 cells), the “KSchild (nM) potency” value was 0.37 nM. Further, the inhibition in vivo at 30 mg/kg in data set [2] (ORX rats, 30 mg/kg per os, 4 successive days, ORX = 0%, SHAM = 100%, read-out: anabolic protection efficacy with regard to levator ani) lay in the range of 50 to 140%. Besides, the inhibition in vivo at 30 mg/kg in data set [2] (ORX rats, 30 mg/kg per os, 4 successive days, ventral prostate, ORX = 0%, SHAM = 100%, read-out: androgenic efficacy with regard to the prostate) is 5 to 70%.
`COc1cc(N2C(=O)N(C)[C@](C)(c3ccc(O)cc3)C2=O)ccc1C#N` [Example 156.2, (R)-4-[3,4-dimethyl-2,5-dioxo-4-(4-hydroxyphenyl)imidazolidin-1-yl]-2-methoxybenzonitrile]: the melting point amounted to 100 °C. Also, the “KSchild (nM) potency” value in data set [1] was 1.5 nM. The inhibition in vivo at 30 mg/kg in data set [2] (setting [5]) is 50 to 140%. Besides, the inhibition in vivo at 30 mg/kg in data set [2] (setting [6]) was 5 to 70%.
The compound `CC1(c2ccc(O)cc2)C(=O)N(c2ccc(Cl)c(Cl)c2)C(=O)N1CCF` (stereo not shown) showed an EC50 in data set [3] of 8 nM.
Regarding `Cc1c(N2C(=O)N(C)C(C)(c3ccc(O)cc3)C2=O)ccc(C#N)c1Cl` (stereo not shown) [Example 8, 2-chloro-4-[3,4-dimethyl-2,5-dioxo-4-(4-hydroxyphenyl)imidazolidin-1-yl]-3-methylbenzonitrile], the inhibition in vivo at 30 mg/kg in data set [2] (setting [5]) was 50 to 140%; in data set [2] (setting [6]) it was 5 to 70%; in data set [4], 40 to 130%.
With `COCN1C(=O)N(c2ccc(C#N)c(C(F)(F)F)c2)C(=O)[C@@]1(C)c1ccc(O)cc1` [Example 222.1, (R)-4-[2,5-dioxo-4-(4-hydroxyphenyl)-3-methoxymethyl-4-methylimidazolidin-1-yl]-2-trifluoromethylbenzonitrile], the melting point is 97 °C. In addition, in data set [1], the “KSchild (nM) potency” value was 4 nM. In addition, the inhibition in vivo at 30 mg/kg in data set [2] (setting [5]) is 50 to 140%. Further, the inhibition in vivo at 30 mg/kg in data set [2] (setting [6]) is 5 to 70%.
In the case of `C=CCN1C(=S)N(c2ccc(C#N)c(C(F)(F)F)c2)C(=O)C1(C)c1ccc(O)cc1` (stereo not shown) [Example 7, 4-[4-(4-hydroxyphenyl)-4-methyl-5-oxo-3-(2-propenyl)-2-thioxoimidazolidin-1-yl]-2-trifluoromethylbenzonitrile], the “KSchild (nM) potency” value in data set [1] is 3.46 nM. The inhibition in vivo at 30 mg/kg in data set [4] lay in the range of 40 to 130%.

(Values after patent US8168667B2 (Galapagos NV, priority 2006, dated 2012).)
